Measured values reported in US20170119034A1, “COMPOSITIONS AND METHODS FOR MODIFYING PERCEPTION OF SWEET TASTE” (University of Florida Research Foundation, Inc., priority 2012, published 2017).

Assays:
[1] = system: texture liking of strawberry fruit (consumer panel); test: Strawberry consumer panel: bivariate fit to texture liking; format: in vivo, human; details: bivariate linear fit; X = content of the substance in strawberry fruit, Y = Texture liking
Method: (§1) All consumer panels were approved by the University of Florida Institutional Review Board. […] Ages of panelist ranged from 18 to 71, with a median age of 24. Panelists self-classified themselves as 98 White or Caucasian, 11 Black or African-American, 1 Native American, Alaska Native or Aleutian, 41 Asian/Pacific Islander, and 15 Other. […] Fresh, fully-ripe strawberry fruit was removed from overnight 4° C. dark storage and allowed to warm to room temperature prior to sensory analysis. Each panelist was given one to two whole strawberries for evaluation, depending on cultivar availability. Panelist took a bite of each sample, chewed, and swallowed it. Ratings for overall liking and liking for texture were scaled on hedonic general labeled magnitude scale (gLMS) in the context of all pleasure/displeasure experiences. […] Scales were employed to mediate valid comparisons across subjects and sessions.
(§2) Bivariate analysis among individual measurements of samples allowed for linear fit, which includes summary of fit, analysis of variance, t-test, and correlation analysis for density ellipse. Two-way Ward hierarchical cluster analysis of all metabolite concentrations and strawberry samples accomplished in JMP.

[2] = system: strawberry flavor intensity (consumer panel); test: Strawberry consumer panel: bivariate fit to strawberry flavor intensity; format: in vivo, human; details: for Parameter Estimates: Estimate: bivariate linear fit, X = content of the substance in strawberry fruit, Y = Flavor Intensity (FI); for relationship to strawberry flavor intensity / sensory perception: in words
Method: as §1, §2

## CCCCCC=O [66-25-1]
[1]
  Parameter Estimates-fit to Texture Liking: Estimate: 0.0005099
[2]
  Parameter Estimates: Estimate: 0.0002842
  relationship to strawberry flavor intensity / sensory perception: does not have a significant correlation to flavor intensity

## CCCCCO [71-41-0]
[1]
  Parameter Estimates-fit to Texture Liking: Estimate: 0.3727
[2]
  Parameter Estimates: Estimate: 0.2445

## CCC(C)(C)O [75-85-4]
[1]
  Parameter Estimates-fit to Texture Liking: Estimate: 0.3219
[2]
  Parameter Estimates: Estimate: 0.1051

## CCCCC(=O)C(C)=O [96-04-8]
[1]
  Parameter Estimates-fit to Texture Liking: Estimate: −0.09953
[2]
  Parameter Estimates: Estimate: 0.01959

## CCC(=O)CC [96-22-0]
[1]
  Parameter Estimates-fit to Texture Liking: Estimate: 0.004596
[2]
  Parameter Estimates: Estimate: 0.05443

## CCCCC(CC)COC(C)=O (centres unmarked) [103-09-3]
[1]
  Parameter Estimates-fit to Texture Liking: Estimate: −1.955
[2]
  Parameter Estimates: Estimate: 0.01965

## CCOC(=O)CC [105-37-3]
[1]
  Parameter Estimates-fit to Texture Liking: Estimate: −0.01062
[2]
  Parameter Estimates: Estimate: −0.01371

## CCCC(=O)OCC [105-54-4, ethyl butyrate]
[2]
  relationship to strawberry flavor intensity / sensory perception: significant positive correlation with flavor intensity

## CCCOC(C)=O [109-60-4]
[1]
  Parameter Estimates-fit to Texture Liking: Estimate: −0.5137
[2]
  Parameter Estimates: Estimate: −0.05307

## CCCCC=O [110-62-3]
[1]
  Parameter Estimates-fit to Texture Liking: Estimate: 0.1789
[2]
  Parameter Estimates: Estimate: −0.1249
  relationship to strawberry flavor intensity / sensory perception: negatively correlated to flavor

## CCCCCC(=O)OCC [123-66-0]
[1]
  Parameter Estimates-fit to Texture Liking: Estimate: −0.0003354
[2]
  Parameter Estimates: Estimate: 0.002386
  relationship to strawberry flavor intensity / sensory perception: no bearing on sensory perception

## CC(=O)OCCC(C)C [123-92-2]
[1]
  Parameter Estimates-fit to Texture Liking: Estimate: −0.07997
[2]
  Parameter Estimates: Estimate: 0.005816

## CCCCCCCC=O [124-13-0]
[1]
  Parameter Estimates-fit to Texture Liking: Estimate: −0.2865
[2]
  Parameter Estimates: Estimate: 0.3091

## Cc1cc(C(C)(C)C)c(O)c(C(C)(C)C)c1 [128-37-0]
[1]
  Parameter Estimates-fit to Texture Liking: Estimate: 0.2009
[2]
  Parameter Estimates: Estimate: 0.1227

## COC(=O)c1ccccc1N [134-20-3]
[1]
  Parameter Estimates-fit to Texture Liking: Estimate: −4.493
[2]
  Parameter Estimates: Estimate: −0.8484

## CC(=O)OCc1ccccc1 [140-11-4]
[1]
  Parameter Estimates-fit to Texture Liking: Estimate: −0.0849
[2]
  Parameter Estimates: Estimate: 0.02204

## CCCC(=O)CC [589-38-8]
[1]
  Parameter Estimates-fit to Texture Liking: Estimate: 0.4306
[2]
  Parameter Estimates: Estimate: 0.4621

## C=CC(O)CC (centres unmarked) [616-25-1]
[1]
  Parameter Estimates-fit to Texture Liking: Estimate: 0.06401
[2]
  Parameter Estimates: Estimate: 0.2097

## CCCC(=O)OC [623-42-7]
[1]
  Parameter Estimates-fit to Texture Liking: Estimate: 6.892e−05
[2]
  Parameter Estimates: Estimate: 0.0008905
  relationship to strawberry flavor intensity / sensory perception: significant positive correlation with flavor intensity

## C/C=C/C(=O)OC [623-43-8]
[1]
  Parameter Estimates-fit to Texture Liking: Estimate: −0.7133
[2]
  Parameter Estimates: Estimate: −0.101

## CCCCC(=O)OC [624-24-8]
[1]
  Parameter Estimates-fit to Texture Liking: Estimate: 0.2596
[2]
  Parameter Estimates: Estimate: −0.1

## CCC(C)COC(C)=O (centres unmarked) [624-41-9]
[1]
  Parameter Estimates-fit to Texture Liking: Estimate: −0.03512
[2]
  Parameter Estimates: Estimate: 0.009696

## CCCCCOC(C)=O [628-63-7]
[1]
  Parameter Estimates-fit to Texture Liking: Estimate: −0.1907
[2]
  Parameter Estimates: Estimate: 0.4892

## CCCCCCC1CCC(=O)O1 (centres unmarked) [706-14-9]
[1]
  Parameter Estimates-fit to Texture Liking: Estimate: 0.01485
[2]
  Parameter Estimates: Estimate: 0.02049

## CCC/C=C/CO [928-95-0]
[1]
  Parameter Estimates-fit to Texture Liking: Estimate: −0.0133
[2]
  Parameter Estimates: Estimate: −0.0006379

## CSC(C)=O [1534-08-3]
[1]
  Parameter Estimates-fit to Texture Liking: Estimate: 0.06449
[2]
  Parameter Estimates: Estimate: 1.808

## CC/C=C/C=O [1576-87-0, (E)-pent-2-en-1-al]
[2]
  relationship to strawberry flavor intensity / sensory perception: enhancing toward flavor intensity

## CCC/C=C/COC(C)=O [2497-18-9]
[1]
  Parameter Estimates-fit to Texture Liking: Estimate: −0.02456
[2]
  Parameter Estimates: Estimate: 0.008248

## COC1=C(C)OC(C)C1=O (centres unmarked) [4077-47-8, 4-methoxy-2,5-dimethyl-3(2H)-furanone]
[2]
  relationship to strawberry flavor intensity / sensory perception: significant positive correlation with flavor intensity
